Data published in paper PMC3172288, “RLIP76, a Glutathione-Conjugate Transporter, Plays a Major Role in the Pathogenesis of Metabolic Syndrome” (PLoS ONE, 2011).

Tests used:
[1] = target: T1, RLIP76 (Homo sapiens, UniProt Q15311); experiment: ATP-dependent uptake of 3H-GSHNE into RLIP76 proteoliposomes; type: biochemical; conditions: 10 µM, labelled compound, 37 °C
T1 construct: gene RALBP1; purified recombinant RLIP76 reconstituted in proteoliposomes
T1 sequence (Q15311 2-655): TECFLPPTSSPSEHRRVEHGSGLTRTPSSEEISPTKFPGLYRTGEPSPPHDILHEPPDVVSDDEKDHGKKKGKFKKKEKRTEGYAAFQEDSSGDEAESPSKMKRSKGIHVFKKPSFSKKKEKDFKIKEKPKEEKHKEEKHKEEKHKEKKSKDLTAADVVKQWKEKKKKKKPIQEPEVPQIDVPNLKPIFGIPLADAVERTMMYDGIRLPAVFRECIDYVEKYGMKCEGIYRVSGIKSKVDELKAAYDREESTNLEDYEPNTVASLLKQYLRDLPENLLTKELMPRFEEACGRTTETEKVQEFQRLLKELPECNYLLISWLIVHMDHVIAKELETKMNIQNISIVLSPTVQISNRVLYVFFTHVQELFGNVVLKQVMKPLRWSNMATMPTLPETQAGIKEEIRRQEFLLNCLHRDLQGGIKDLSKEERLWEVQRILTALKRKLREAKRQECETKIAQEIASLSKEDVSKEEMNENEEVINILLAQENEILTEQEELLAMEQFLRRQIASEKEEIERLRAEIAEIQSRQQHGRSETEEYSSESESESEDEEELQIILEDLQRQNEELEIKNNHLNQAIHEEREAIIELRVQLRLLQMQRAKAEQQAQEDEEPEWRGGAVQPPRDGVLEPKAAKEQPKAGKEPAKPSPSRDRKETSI

[2] = target: T1, RLIP76; experiment: inhibition of ATP-dependent 3H-GSHNE uptake into RLIP76 proteoliposomes; type: biochemical; conditions: 10 µM 3H-GSHNE, 0-100 µM drug, 30 min incubation at 37 °C

| ATP-dependent uptake of 3H-GSHNE into RLIP76 proteoliposomes [1] | Compound | inhibition of ATP-dependent 3H-GSHNE uptake into RLIP76 proteoliposomes [2] |
| --- | --- | --- |
| ATP-dependent uptake of ^3H-GSHNE | CCCCCC(O)C(CC=O)SC[C@H](NC(=O)CC[C@H](N)C(=O)O)C(=O)NCC(=O)O (stereo partly drawn) [3H-GSHNE] | – |
| – | CN(C)C(=N)NC(=N)N [metformin] | metformin inhibits only half of the transport activity |
| – | CN(CCOc1ccc(CC2SC(=O)NC2=O)cc1)c1ccccn1 (stereo not drawn) [rosiglitazone] | Inhibition of the transport activity of purified recombinant human RLIP76 towards physiological substrate |
